Test results as given in patent publication US8252832B2, “Kinesin inhibitors as cancer therapeutics” (Novartis AG, priority 2007, dated 2012).
Like-named read-outs stand apart in the source and are kept apart here.

Tests used:
Assay in all cases: CellTiter-Glo, hematologic malignancy panel
Assay type in all cases: cell-based
[1] = system: L428; details: for GI50: Homo sapiens, L-428, HL
From the text: (§1) Identification of tumor types that are the most sensitive to the KSP inhibitors of the present invention can be accomplished using an unbiased approach that uses several cell-based assays. The assays chosen were as follows: • CellTiter-Glo®. This is an assay designed to measure ATP concentration in a cell culture, and can be correlated to cell number. Briefly CellTiter-Glo® (Promega Corporation) is a homogeneous method using the single CellTiter-Glo® reagent to detect ATP wherein ATP in the assay drives the activity of a thermostable luciferase to create a luminescent signal which can then be measured and correlated with the number of viable cells. Briefly, for adherent cells, 1,000 to 5,000 cells/well were plated in 96-well plates (100 μl/well) and let to adhere for 24 hours before being treated with drug. For non-adherent cells, 1,000 to 10,000 cells/well were plated in 96-well plates (100 μl/well) and immediately treated with drug. Drug dilutions were prepared in DMSO at 1000 times the final concentration. These dilutions were then diluted 1/100 in growth media before being added to the cells (11 μl/well) to achieve the desired final concentration. After 48 h in a 37° C. tissue culture incubator, the plates were processed for the CellTiter-Glo®assay according to the manufacturer's instructions. Protocol for a 72 hour cell proliferation assay: The 72 hour assay was performed the same way as the 48 hour assay except for the following modifications: For adherent cells, 500 to 5,000 cells/well were plated in 96-well plates (90 μl/well cell growth media) and left to adhere for 24 hours before being treated with drug. For non-adherent cells, 1,000 to 10,000 cells/well were plated in 96-well plates (90 μl/well cell growth media) and immediately treated with drug. Data values presented represent the concentration of test compound required for a 50% reduction in growth. • LDH release. The Cytotoxicity Detection KitPLUS (LDH) assay (Roche Diagnostics, Manheim, Germany) measures the amount of LDH released in the media by dying cells; LDH catalyzes the conversion of lactate into pyruvate. The enzymatic reaction is coupled to a chemical reaction that uses a tetrazolium salt to form a formazan that is red and can be detected by its absorbance at 490 nm. This assay measures the amount of cell death after drug treatment. Cells were plated at 10,000 cells/well in 96-well plates (100 μl/well). Adherent cells were let to adhere for 24 hours before being treated with drug, whereas non-adherent cells were immediately treated with drug. Drug dilutions were prepared in DMSO at 1000 times the final concentration. These dilutions were then diluted 1/100 in growth media before being added to the cells (11 μl/well) to achieve the desired final concentration. After 48 h in a 37° C. tissue culture incubator, the plates were processed for the Cytotoxicity Detection KitPLUS (LDH) assay according to the manufacturer's instructions. The media only values were subtracted from all the data points before analysis. Data values presented correspond to the compound concentration wherein LDH output is at half maximal level. • Caspase-Glo® 3/7. The Caspase-Glo® 3/7 Assay (Promega Corporation) is a homogeneous luminescent assay that measures caspase-3/7 activities. The assay provides a proluminescent caspase-3/7 DEVD-aminoluciferin substrate and a thermostable luciferase in a reagent optimized for caspase-3/7 activity, luciferase activity and cell lysis. Adding the single Caspase-Glo® 3/7 Reagent results in cell lysis, followed by caspase cleavage of the substrate. This liberates free aminoluciferin, which is consumed by the luciferase, generating a luminescent signal. The signal is proportional to caspase-3/7 activity. Data values presented correspond to the compound concentration wherein caspase 3/7 activity is at half maximal level. […]

[2] = system: K562; details: CML; for GI50: Homo sapiens
From the text: as §1

[3] = system: MOLT-4; details: ALL; for GI50: Homo sapiens
From the text: as §1

[4] = system: SEM-Luc; details: ALL
From the text: as §1

[5] = system: HEL92; details: AML
From the text: as §1

[6] = system: L363; details: for GI50: Homo sapiens, L-363, MM
From the text: as §1

[7] = system: H929-Luc; details: MM
From the text: as §1

[8] = system: Karpas-299-Luc; details: NHL
From the text: as §1

[9] = system: Kasumi-1; details: AML; for GI50: Homo sapiens
From the text: as §1

[10] = system: CCRF-CEM; details: ALL; for GI50: Homo sapiens
From the text: as §1

[11] = system: HL60-Luc; details: AML; for GI50: HL-60-Luc
From the text: as §1

[12] = system: SET-2; details: AML; for GI50: Homo sapiens
From the text: as §1

[13] = system: KMS18-Luc; details: MM
From the text: as §1

[14] = system: RS4; 11; details: ALL; for GI50: Homo sapiens
From the text: as §1

[15] = system: H929; details: for GI50: Homo sapiens, NCI-H929, MM
From the text: as §1

[16] = system: SUDHL-4; details: for GI50: Homo sapiens, SU-DHL-4, NHL
From the text: as §1

[17] = system: RPMI-8226; details: MM; for GI50: Homo sapiens
From the text: as §1

[18] = GI50 in nM, read-out: Log(GI50) (converted)

In the case of `CC(C)(C)[C@H](c1nc(-c2cc(F)ccc2F)cn1Cc1ccccc1)N(CC[C@H](N)CF)C(=O)CO` [Compound IIa], the “Differential vs mean Log(GI50)” value ([1]; HL) was −1.771, the GI50 [1, 18] was 20 nM and the GI50 ([1]; read-out: GI50) was 20 nM. For the same compound, the “Differential vs mean Log(GI50)” value [2] was 0.210, the GI50 [2, 18] was 0.209 nM and the GI50 ([2]; read-out: GI50) was 0.21 nM. The “Differential vs mean Log(GI50)” value [3] was 0.010, the GI50 [3, 18] was 0.331 nM and the GI50 ([3]; read-out: GI50) was 0.33 nM. For the same compound, the “Differential vs mean Log(GI50)” value [4] was 0.354, the GI50 [4, 18] was 0.15 nM and the GI50 ([4]; read-out: GI50) was 0.15 nM. For the same compound, the “Differential vs mean Log(GI50)” value [5] was −0.160, the GI50 [5, 18] was 0.49 nM and the GI50 ([5]; read-out: GI50) was 0.49 nM. For the same compound, the GI50 [6, 18] was 0.13 nM, the GI50 ([6]; read-out: GI50) was 0.13 nM and the “Differential vs mean Log(GI50)” value ([6]; MM) was 0.416. For the same compound, the “Differential vs mean Log(GI50)” value [7] was −0.697, the GI50 [7, 18] was 1.69 nM and the GI50 ([7]; read-out: GI50) was 1.69 nM. For the same compound, the “Differential vs mean Log(GI50)” value [8] was −1.775, the GI50 [8, 18] was 20.2 nM and the GI50 ([8]; read-out: GI50) was 20.2 nM. The “Differential vs mean Log(GI50)” value [9] was −0.113, the GI50 [9, 18] was 0.44 nM and the GI50 ([9]; read-out: GI50) was 0.44 nM. The “Differential vs mean Log(GI50)” value [10] was 0.315, the GI50 [10, 18] was 0.164 nM and the GI50 ([10]; read-out: GI50) was 0.16 nM. For the same compound, the “Differential vs mean Log(GI50)” value [11] was −0.173, the GI50 [11, 18] was 0.505 nM and the GI50 ([11]; read-out: GI50) was 0.51 nM. The “Differential vs mean Log(GI50)” value [12] was −0.001, the GI50 [12, 18] was 0.34 nM and the GI50 ([12]; read-out: GI50) was 0.34 nM. For the same compound, the “Differential vs mean Log(GI50)” value [13] was −0.184, the GI50 [13, 18] was 0.518 nM and the GI50 ([13]; read-out: GI50) was 0.52 nM. The “Differential vs mean Log(GI50)” value [14] was 0.530, the GI50 [14, 18] was 0.1 nM and the GI50 ([14]; read-out: GI50) was 0.1 nM. For the same compound, the GI50 [15, 18] was 0.335 nM, the GI50 ([15]; read-out: GI50) was 0.34 nM and the “Differential vs mean Log(GI50)” value ([15]; MM) was 0.005. For the same compound, the GI50 [16, 18] was 0.447 nM, the GI50 ([16]; read-out: GI50) was 0.45 nM and the “Differential vs mean Log(GI50)” value ([16]; NHL) was −0.120. The GI50 [17, 18] was 0.262 nM, the GI50 ([17]; read-out: GI50) was 0.26 nM and the “Differential vs mean Log(GI50)” value [17] was 0.112.
